The text below walks through data of ChEMBL document CHEMBL3886358, “Quinolyl-containing hydroxamic acid compound and preparation method thereof, and pharmaceutical composition containing this compound and use thereof” (2015).

By IC50 is commonly meant the point on the concentration scale where inhibition reaches its midpoint. Low values mean higher potency, high ones lower potency.

The assay has as its target T1, Receptor-type tyrosine-protein kinase FLT3 (Homo sapiens, UniProt P36888).
T1 sequence (P36888 whole entry): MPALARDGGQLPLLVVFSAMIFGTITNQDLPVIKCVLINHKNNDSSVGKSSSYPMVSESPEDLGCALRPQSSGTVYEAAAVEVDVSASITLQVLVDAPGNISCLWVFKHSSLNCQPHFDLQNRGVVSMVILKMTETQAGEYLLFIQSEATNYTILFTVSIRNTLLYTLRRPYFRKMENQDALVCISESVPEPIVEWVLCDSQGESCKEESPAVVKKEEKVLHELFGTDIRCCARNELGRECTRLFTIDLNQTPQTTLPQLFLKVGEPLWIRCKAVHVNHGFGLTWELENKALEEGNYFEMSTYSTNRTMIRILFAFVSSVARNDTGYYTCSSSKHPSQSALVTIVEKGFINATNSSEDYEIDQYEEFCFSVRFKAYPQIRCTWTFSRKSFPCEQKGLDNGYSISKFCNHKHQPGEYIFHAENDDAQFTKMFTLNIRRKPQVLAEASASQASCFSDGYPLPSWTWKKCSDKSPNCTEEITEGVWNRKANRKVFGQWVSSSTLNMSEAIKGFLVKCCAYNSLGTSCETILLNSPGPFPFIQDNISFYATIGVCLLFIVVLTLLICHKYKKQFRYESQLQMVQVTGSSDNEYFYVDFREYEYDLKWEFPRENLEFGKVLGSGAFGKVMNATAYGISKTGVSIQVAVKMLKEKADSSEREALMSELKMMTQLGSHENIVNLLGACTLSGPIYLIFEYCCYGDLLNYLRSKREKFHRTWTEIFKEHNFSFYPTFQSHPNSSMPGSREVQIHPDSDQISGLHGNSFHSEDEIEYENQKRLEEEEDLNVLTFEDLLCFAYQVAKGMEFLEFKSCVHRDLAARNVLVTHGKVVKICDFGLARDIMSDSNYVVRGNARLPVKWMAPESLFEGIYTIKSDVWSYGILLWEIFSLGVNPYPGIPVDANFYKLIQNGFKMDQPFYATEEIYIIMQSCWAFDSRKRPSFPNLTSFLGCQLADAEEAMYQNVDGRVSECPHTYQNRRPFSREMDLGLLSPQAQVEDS
Put plainly: Sci. USA 1988, 85(23), 9312). Specific steps were as follows: The compound of the present invention was dissolved in dimethyl sulfoxide (DMSO) to make a stock solution of 2 mM, then the stock solution was diluted with DMSO following a 7 half-log series to concentrations ranging from 2 uM to 600 pM. The class given is cell-based.

Structures are written as SMILES.

Compound `COc1cc2c(Oc3ccc(NC(=O)C4(C(=O)Nc5ccc(F)cc5)CC4)cc3F)ccnc2cc1OCCCC(=O)NO` yielded a half-inhibitory concentration (IC50) of 31 nM.
